Key:
Test in all cases: relative viability (nuclei count vs DMSO), 5 days (fraction); higher = more cells survive
Crizotinib + Dasatinib = compound: C[C@@H](Oc1cc(-c2cnn(C3CCNCC3)c2)cnc1N)c1c(Cl)ccc(F)c1Cl [Crizotinib] + Cc1nc(Nc2ncc(C(=O)Nc3c(C)cccc3Cl)s2)cc(N2CCN(CCO)CC2)n1 [Dasatinib] (partner 0.075 µM)
In short: (§1)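 Lung cancer cell lines were pin-tool dosed in 1536-well plates on the day after seeding, with either a lone drug or a fixed anchor-drug dose plus five library-drug doses (not always all listed) in √10 steps. Nuclei were counted on 4× images after 5 days. Relative viability is the ratio of treated-well to vehicle-well nuclei counts, with each value a median of duplicate plates.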

Crizotinib + Navitoclax = compound: C[C@@H](Oc1cc(-c2cnn(C3CCNCC3)c2)cnc1N)c1c(Cl)ccc(F)c1Cl [Crizotinib] + CC1(C)CCC(c2ccc(Cl)cc2)=C(CN2CCN(c3ccc(C(=O)NS(=O)(=O)c4ccc(N[C@H](CCN5CCOCC5)CSc5ccccc5)c(S(=O)(=O)C(F)(F)F)c4)cc3)CC2)C1 [Navitoclax] (partner 0.5 µM)
In short: as §1

Olaparib + Luminespib = compound: O=C(c1cc(Cc2n[nH]c(=O)c3ccccc23)ccc1F)N1CCN(C(=O)C2CC2)CC1 [Olaparib] + CCNC(=O)c1noc(-c2cc(C(C)C)c(O)cc2O)c1-c1ccc(CN2CCOCC2)cc1 [Luminespib] (partner 0.01 µM)
In short: as §1

Carfilzomib + Crizotinib = compound: CC(C)C[C@H](NC(=O)[C@H](CCc1ccccc1)NC(=O)CN1CCOCC1)C(=O)N[C@@H](Cc1ccccc1)C(=O)N[C@@H](CC(C)C)C(=O)[C@@]1(C)CO1 [Carfilzomib] + C[C@@H](Oc1cc(-c2cnn(C3CCNCC3)c2)cnc1N)c1c(Cl)ccc(F)c1Cl [Crizotinib] (partner 1 µM)
In short: as §1

Row | Cell Line | relative viability (Crizotinib + Dasatinib; first compound 0.01 µM) | relative viability (Crizotinib + Dasatinib; first compound 0.03162 µM) | relative viability (Crizotinib + Dasatinib; first compound 0.1 µM) | relative viability (Crizotinib + Dasatinib; first compound 0.3162 µM) | relative viability (Crizotinib + Dasatinib; first compound 1 µM) | relative viability (Crizotinib + Navitoclax; first compound 0.01 µM) | relative viability (Crizotinib + Navitoclax; first compound 0.03162 µM) | relative viability (Crizotinib + Navitoclax; first compound 0.1 µM) | relative viability (Crizotinib + Navitoclax; first compound 1 µM) | relative viability (Olaparib + Luminespib; first compound 0.08 µM) | relative viability (Olaparib + Luminespib; first compound 0.253 µM) | relative viability (Olaparib + Luminespib; first compound 2.53 µM) | relative viability (Olaparib + Luminespib; first compound 8 µM) | relative viability (Carfilzomib + Crizotinib; first compound 0.001 µM) | relative viability (Carfilzomib + Crizotinib; first compound 0.003162 µM) | relative viability (Carfilzomib + Crizotinib; first compound 0.01 µM) | relative viability (Carfilzomib + Crizotinib; first compound 0.03162 µM) | relative viability (Carfilzomib + Crizotinib; first compound 0.1 µM) | relative viability (Crizotinib + Navitoclax; first compound 0.3162 µM)
1 | SK-MES-1 | 0.385 | 0.373 | 0.418 | 0.312 | 0.341 | 1.2 | 1.29 | 1.25 | 1.2 | 0.841 | 0.774 | 0.727 | 0.604 | 1.04 | 1.05 | 1.09 | 0.752 | 0.169 | –
2 | SW 1573 | 0.352 | 0.389 | 0.51 | 0.449 | 0.454 | 0.683 | – | 0.97 | 0.932 | 0.376 | 0.221 | 0.204 | 0.158 | 0.887 | 0.864 | 0.793 | 0.261 | 0.0628 | 0.945
3 | UMC-11 | 0.381 | 0.468 | 0.426 | 0.282 | 0.502 | 0.285 | 0.308 | 0.306 | 0.365 | 1.06 | 0.855 | 0.683 | 0.414 | 0.613 | 0.627 | 0.627 | 0.554 | 0.1 | 0.282
